# Assay: recombinant UMI read abundance after kanamycin selection (control-corrected) (log10(CPM+1)); higher = more efficient recombination; extreme values may be limits of the assay; sequences stand for … in AGTGCAGAGAAAATCGGCCAGTTTTCTCTGCCTGCAGTCCGCATGCCGTGGGACCCCTTGGGTTCTAACCTGTTGCCTAGATTTATGCAGCGGACTGCCTTTCTCCCAAAGTGATAAACCGG…AGGTTGGTTTCACT; site = the 11-nt donor
# Method in brief: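 Under IPTG (0.07 mM) plus kanamycin, or without selection, Escherichia coli carrying a UMI-tagged donor and donor-binding-loop pair library and a target plasmid for the IS621 bridge recombinase were plated in two replicates. Recombinant UMIs were PCR-amplified across the donor–target junction and sequenced. Counts were converted to CPM, averaged over replicates, scaled by control-derived factors and reported as log10(CPM+1).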
# 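Note: IS621 bridge recombinase in Escherichia coli cells against a fixed T5 target plasmid.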
row,Sequence,recombinant UMI read abundance (log10)
1,CGGGCGTCATGGACCGGTTTTCCCGGTAATCCGTATTTGCC (site CGGGGGTCTGG),0
2,CGGGCGTCATGGACCGGTTTTCCCGGTAATCCGTATTTGCC (site CGGGTGTCTGG),0
3,CGGGGAACATGGACCGGTTTTCCCGGTAATCCGTATTTGTT (site CGAGGAACTAA),2.44
4,CGGGGAACATGGACCGGTTTTCCCGGTAATCCGTATTTGTT (site CGCGGAACTAA),0.00411
5,CGGGGAACATGGACCGGTTTTCCCGGTAATCCGTATTTGTT (site CGGGGAACTAA),2.6
6,CGGGGAACATGGACCGGTTTTCCCGGTAATCCGTATTTGTT (site CGTGGAACTAA),0.548
7,CGGGTACCATGGACCGGTTTTCCCGGTAATCCGTATTTGTA (site CGGGTACCTTA),0.00704
8,CGGGTCACATGGACCGGTTTTCCCGGTAATCCGTATTTGGC (site CGGGTCACTGC),3.54
9,CGGGTGTCATGGACCGGTTTTCCCGGTAATCCGTATTTGCC (site CGGGAGTCTGG),0.659
10,CGGGTGTCATGGACCGGTTTTCCCGGTAATCCGTATTTGCC (site CGGGCGTCTGG),1.74
11,CGGGTGTCATGGACCGGTTTTCCCGGTAATCCGTATTTGCC (site CGGGGGTCTGG),0
12,CGGGTGTCATGGACCGGTTTTCCCGGTAATCCGTATTTGCC (site CGGGTGTCTGG),2.69
13,CGGGTTCCATGGACCGGTTTTCCCGGTAATCCGTATTTGTT (site CGGAATCCTAA),0.00595
14,CGGGTTCCATGGACCGGTTTTCCCGGTAATCCGTATTTGTT (site CGGGTTCCTAA),0.776
15,CGGTAACCATGGACCGGTTTTCCCGGTAATCCGTATTTGAT (site CGGAAACCTAT),0
16,CGGTAACCATGGACCGGTTTTCCCGGTAATCCGTATTTGAT (site CGGCAACCTAT),0.00415
17,CGGTAACCATGGACCGGTTTTCCCGGTAATCCGTATTTGAT (site CGGGAACCTAT),0
18,CGGTAACCATGGACCGGTTTTCCCGGTAATCCGTATTTGAT (site CGGTAACCTAT),0
19,CGGTAGACATGGACCGGTTTTCCCGGTAATCCGTATTTGCA (site AGGAAGACTTG),0
20,CGGTAGACATGGACCGGTTTTCCCGGTAATCCGTATTTGCA (site CGGTAGACTTG),2.84
21,CGGTAGCCATGGACCGGTTTTCCCGGTAATCCGTATTTGCT (site CGGTAGCCTAG),0.793
22,CGGTATCCATGGACCGGTTTTCCCGGTAATCCGTATTTGTT (site CGGAATCCTAA),0
23,CGGTATCCATGGACCGGTTTTCCCGGTAATCCGTATTTGTT (site CGGCATCCTAA),0.493
24,CGGTATCCATGGACCGGTTTTCCCGGTAATCCGTATTTGTT (site CGGGATCCTAA),0.0113
25,CGGTATCCATGGACCGGTTTTCCCGGTAATCCGTATTTGTT (site CGGTATCCTAA),0.562

row,Sequence,recombinant UMI read abundance (log10)
1,CGGTCGTCATGGACCGGTTTTCCCGGTAATCCGTATTTGCA (site CGGTCGTCTTG),1.71
2,CGGTGGCCATGGACCGGTTTTCCCGGTAATCCGTATTTGGG (site CGGTGGCCTCC),0.0062
3,CGGTTATCATGGACCGGTTTTCCCGGTAATCCGTATTTGCT (site CGATCATCTAG),0
4,CGGTTATCATGGACCGGTTTTCCCGGTAATCCGTATTTGCT (site CGGTTATCTAG),2.65
5,CGGTTTACATGGACCGGTTTTCCCGGTAATCCGTATTTGCT (site CAGTTTACTAG),0
6,CGGTTTACATGGACCGGTTTTCCCGGTAATCCGTATTTGCT (site CCGTTTACTAG),0.391
7,CGGTTTACATGGACCGGTTTTCCCGGTAATCCGTATTTGCT (site CGGTTTACTAG),1.33
8,CGGTTTACATGGACCGGTTTTCCCGGTAATCCGTATTTGCT (site CTGTTTACTAG),1.21
9,CGTAAAGCATGGACCGGTTTTCCCGGTAATCCGTATTTGAT (site CATAAAGCTAT),0.355
10,CGTAAAGCATGGACCGGTTTTCCCGGTAATCCGTATTTGAT (site CCTAAAGCTAT),0
11,CGTAAAGCATGGACCGGTTTTCCCGGTAATCCGTATTTGAT (site CGTAAAGCTAT),2.44
12,CGTAAAGCATGGACCGGTTTTCCCGGTAATCCGTATTTGAT (site CTTAAAGCTAT),0
13,CGTAACACATGGACCGGTTTTCCCGGTAATCCGTATTTGCC (site CGTAACACTGG),2.01
14,CGTAAGACATGGACCGGTTTTCCCGGTAATCCGTATTTGAG (site CGTAAGACTCT),1.73
15,CGTAAGACATGGACCGGTTTTCCCGGTAATCCGTATTTGAG (site CGTCAGACTCT),0.0684
16,CGTAAGACATGGACCGGTTTTCCCGGTAATCCGTATTTGAG (site CGTGAGACTCT),0.0574
17,CGTAAGACATGGACCGGTTTTCCCGGTAATCCGTATTTGAG (site CGTTAGACTCT),0.396
18,CGTACATCATGGACCGGTTTTCCCGGTAATCCGTATTTGCG (site CGTACATCTCG),1.29
19,CGTACGTCATGGACCGGTTTTCCCGGTAATCCGTATTTGTT (site AGTACGTCTAA),0.0741
20,CGTACGTCATGGACCGGTTTTCCCGGTAATCCGTATTTGTT (site CGTACGTCTAA),0.728
21,CGTACGTCATGGACCGGTTTTCCCGGTAATCCGTATTTGTT (site GGTACGTCTAA),0.0115
22,CGTACGTCATGGACCGGTTTTCCCGGTAATCCGTATTTGTT (site TGTACGTCTAA),0.00974
23,CGTACTCCATGGACCGGTTTTCCCGGTAATCCGTATTTGCA (site CGTACTCCTTG),0.892
24,CGTAGAACATGGACCGGTTTTCCCGGTAATCCGTATTTGTT (site CGTAGAACTAA),0.685
25,CGTAGAACATGGACCGGTTTTCCCGGTAATCCGTATTTGTT (site CGTCGAACTAA),0.018

row,Sequence,recombinant UMI read abundance (log10)
1,CGTAGAACATGGACCGGTTTTCCCGGTAATCCGTATTTGTT (site CGTGGAACTAA),0.00623
2,CGTAGAACATGGACCGGTTTTCCCGGTAATCCGTATTTGTT (site CGTTGAACTAA),0.0104
3,CGTAGTGCATGGACCGGTTTTCCCGGTAATCCGTATTTGTT (site CGTAGTGCTAA),0.84
4,CGTCCAGCATGGACCGGTTTTCCCGGTAATCCGTATTTGCT (site CGTCCAGCTAG),0.438
5,CGTCGAACATGGACCGGTTTTCCCGGTAATCCGTATTTGAA (site CGTCGAACTTT),0.822
6,CGTCGAACATGGACCGGTTTTCCCGGTAATCCGTATTTGTT (site CGTAGAACTAA),0
7,CGTCGAACATGGACCGGTTTTCCCGGTAATCCGTATTTGTT (site CGTCGAACTAA),0
8,CGTCGAACATGGACCGGTTTTCCCGGTAATCCGTATTTGTT (site CGTGGAACTAA),0
9,CGTCGAACATGGACCGGTTTTCCCGGTAATCCGTATTTGTT (site CGTTGAACTAA),0.00437
10,CGTCTATCATGGACCGGTTTTCCCGGTAATCCGTATTTGAT (site CGTCTATCTAT),0
11,CGTCTCTCATGGACCGGTTTTCCCGGTAATCCGTATTTGGG (site CGTCTCTCTCC),0.0222
12,CGTCTCTCATGGACCGGTTTTCCCGGTAATCCGTATTTGTA (site CATCTCTCTTA),1.13
13,CGTCTCTCATGGACCGGTTTTCCCGGTAATCCGTATTTGTA (site CCTCTCTCTTA),1.04
14,CGTCTCTCATGGACCGGTTTTCCCGGTAATCCGTATTTGTA (site CGTCTCTCTTA),2.64
15,CGTCTCTCATGGACCGGTTTTCCCGGTAATCCGTATTTGTA (site CTTCTCTCTTA),1.33
16,CGTCTGTCATGGACCGGTTTTCCCGGTAATCCGTATTTGAC (site CGTCTGTCTGT),0
17,CGTGCAACATGGACCGGTTTTCCCGGTAATCCGTATTTGTT (site CGTGAAACTAA),0
18,CGTGCAACATGGACCGGTTTTCCCGGTAATCCGTATTTGTT (site CGTGCAACTAA),0.0114
19,CGTGCAACATGGACCGGTTTTCCCGGTAATCCGTATTTGTT (site CGTGGAACTAA),0.018
20,CGTGCAACATGGACCGGTTTTCCCGGTAATCCGTATTTGTT (site CGTGTAACTAA),0.00375
21,CGTGGAACATGGACCGGTTTTCCCGGTAATCCGTATTTGAT (site CGTGGAACTAA),0.00774
22,CGTGGAACATGGACCGGTTTTCCCGGTAATCCGTATTTGAT (site CGTGGAACTAC),0
23,CGTGGAACATGGACCGGTTTTCCCGGTAATCCGTATTTGAT (site CGTGGAACTAG),0
24,CGTGGAACATGGACCGGTTTTCCCGGTAATCCGTATTTGAT (site CGTGGAACTAT),2.14
25,CGTGGAACATGGACCGGTTTTCCCGGTAATCCGTATTTGTG (site CGTGGAACTAA),0.0173
